Laboratory results: paper PMC12376128, “In vitro and In Vivo Drug Metabolism Analysis of BPI-460372 - A Covalent TEAD1/3/4 Inhibitor” (Current Drug Metabolism, 2025)

What was measured:
[1] = design: method as in doi:10.1158/1538-7445.AM2024-7575; settings: cited from earlier work
[2] = Metabolite identification in rat plasma, urine, feces and bile; format: in vivo, SD rats
Method in brief: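 Pooled sex-specific samples from SD rats: plasma after 12 mg/kg, urine, feces and bile (collected over 0-48 h) after 6 mg/kg; beagle dog plasma after 8 mg/kg. Acetonitrile extraction (urine centrifuged only), dried, redissolved in acetonitrile/water 20:80, analysed by UHPLC-Orbitrap-HRMS.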

Stability in plasma = format: in vitro ADME; settings: dog plasma, 37°C, 4 h
In vivo clearance [3] = settings: monkeys
CYP2C8 = experiment: Metabolic stability in HLMs with or without specific CYP inhibitor (quercetin); format: in vitro ADME, human; settings: HLMs 1 mg protein/mL, substrate 1 μM, quercetin 20 µM
Description: Before starting the experiments, the HLMs were thawed gently on ice. Metabolic stability incubations were performed at 37 °C. The incubations contained 100 mM phosphate buffer saline (PBS, pH 7.4), HLMs (1 mg protein·mL^-1), dimethyl sulfoxide (DMSO, blank control) or a selective CYP inhibitor, and BPI-460372 or positive control substrates (final incubation concentration, 1 μM). The incubation process started with the addition of NADPH (1 mM final concentration) after a 5-minute preincubation period. The chemical inhibitors were as follows: a-naphthoflavone (2 µM) for CYP1A2, ticlopidine (20 µM) for 2B6, quercetin (20 µM) for CYP2C8, sulfaphenazole (20 µM) for CYP2C9, ticlopidine (200 µM) for CYP2C19, quinidine (20 µM) for CYP2D6, and ketoconazole (20 µM) for CYP3A [9]. Aliquots were maintained in acetonitrile containing internal standard (IS) at various time points, such as 0 min, 5 min, 10 min, 20 min, 30 min, and 60 min. All incubations were performed in triplicate, and the concentration in the supernatant was determined by liquid chromatography-tandem mass spectrometry (LC-MS/MS).
The elimination rate constant k (min^-1) was obtained by linear regression from the natural logarithm of the […] of the parent drug and the incubation time. The inhibition rate was calculated using equation 1 [10]: […]

mouse hepatocytes [4] = experiment: Metabolism and metabolite formation in hepatocytes; format: in vitro ADME, ICR mouse; settings: ICR mouse hepatocytes, 10 µM BPI-460372, 4 h incubation
Description: All the samples were duplicates.

In vivo clearance [5] = settings: rats
human hepatocytes [6] = experiment: Metabolism and metabolite formation in hepatocytes; settings: human hepatocytes, 10 µM BPI-460372, 4 h incubation
Description: 10 µM BPI-460372 was incubated in five species (human, cynomolgus monkey, beagle dog, SD rat, and ICR mouse) hepatocytes (1 × 10^6 cells·min^-1) at 37 °C for 4 h. 7-EC, as positive control, was incubated for 0 h and 4 h. For blank control, hepatocytes were inactivated by adding ice-cold acetonitrile, and then the BPI-460372 solution was added. All the samples were duplicates. Incubations were stopped using the same volume of cold acetonitrile. The tube was vortexed, and the duplicate samples were combined. Metabolite profiling and identification of BPI-460372 were conducted by using UHPLC-Orbitrap-HRMS. The samples of 7-EC were analyzed by LC-MS/MS and then semi-quantified using the peak area ratio of analyte versus IS.
For hepatocyte metabolite identification, the different metabolites of BPI-460372 were detected using an ACQUITY UPLC HSS T3 column (1.8 µm, 100 mm × 2.1 mm) and ACQUITY UPLC BEH C18 column (1.7 µm, 100 mm × 2.1 mm) for rat and dog metabolite identification. The mobile phase contained a mixture of 0.1% formic acid in water (A) and 0.1% formic acid in acetonitrile (B). The gradient elution program was as follows: 0.0-1.0 min, 5% B; 1.0-7.0 min, 5%-30% B; 7.0-12.0 min, 30%-80% B; 12.0-16.0 min, 80%-95% B; 16.0-18.0 min, 95% B; 18.0-18.1 min, 95%-5% B. Then, 5% B from 18.1 to 20.0 min was maintained for equilibration. The flow rate was set to 0.5 mL/min, and the column temperature was kept at 40°C. Eluted fractions were monitored by a UV detector at 314 nm.

rat hepatocytes = experiment: in vitro
Description: (§1) After mixing, 20 μL of cell suspension was serially transferred into 200 μL of cold acetonitrile containing IS at the time points of 0, 5, 15, 30, 60, and 120 min, respectively.
(§2) The metabolic stability was assessed by measuring the depletion of substrate. The half-life (t1/2), intrinsic clearance (CLint, in virto, µL·min^-1·million cells^-1), whole liver intrinsic clearance (CLint, in vivo, mL·min-1·kg^-1), and in vivo hepatic clearance (CLH, mL·min-1·kg^-1) were calculated following a reported method. In the calculation of CLH, the fraction drug unbound (Fub) was set as 1. The hepatic blood flow, liver weight, and hepatocellularity of five species were used for the calculation of CLint, in vivo [13, 14]. The hepatic extraction ratio (Eh) means the ratio of CLH to hepatic blood flow.

monkey hepatocytes = experiment: in vitro
Description: as §1, §2

in vitro = settings: hepatocytes
Description: as §1, §2

mouse hepatocytes [7] = experiment: in vitro
Description: as §1, §2

human hepatocytes [8] = experiment: in vitro
Description: as §1, §2

dog hepatocytes = experiment: in vitro
Description: as §1, §2

[9] = oral 6 mg/kg BPI-460372, average of male and female pooled samples

C=C(F)C(=O)N1CC(n2c(=O)n(-c3ccc(C(F)(F)F)cc3)c3nccnc32)C1 [BPI-460372]
Preliminary efficacy ([1]; patients with malignant mesothelioma, lung adenocarcinoma, and lung squamous cell carcinoma): preliminary efficacy was observed
Safety profile ([1]; solid tumor patients): good safety profile
Relative abundance of MS peak areas, Rat Bile 0-48 h [2, 9]: 0.67%
Relative abundance of MS peak areas, Rat Feces 0-48 h [2, 9]: 16.95%
Relative abundance of MS peak areas, Rat Urine 0-48 h [2, 9]: 0.12%
Relative abundance of MS peak areas, Rat Plasma 0-24 h ([2]; oral 12 mg/kg BPI-460372, average of male and female pooled samples): 75.36%
Stability in plasma (Stability in plasma): stable
Clearance in vivo (In vivo clearance [3]): low clearance
Inhibition Rate (CYP2C8): 53.9%
UV (314 nm) Peak Areas Relative Abundance (mouse hepatocytes [4]): 32.74%
Clearance in vivo (In vivo clearance [5]): low clearance
UV (314 nm) Peak Areas Relative Abundance (human hepatocytes [6]): 76.96%
CLH (rat hepatocytes; SD, rat, 1 µM): 11.0 mL/min/kg
Eh (rat hepatocytes; SD, rat, 1 µM): 0.200
Remaining percentage after 120 min incubation (rat hepatocytes; SD, rat, hepatocytes, 2 h, 1 µM): 72.4%
CLint, in vivo (rat hepatocytes; hepatocytes): 13.8 mL/min/kg
CLint, in virto (rat hepatocytes; rat, hepatocytes): 2.941 µL·min^-1·Million cells^-1
Clearance class from Eh (rat hepatocytes; rat, hepatocytes): low clearance
CLH (monkey hepatocytes; cynomolgus monkey, 1 µM): 11.1 mL/min/kg
Eh (monkey hepatocytes; cynomolgus monkey, 1 µM): 0.253
CLint, in vivo (monkey hepatocytes; hepatocytes): 14.9 mL/min/kg
CLint, in virto (monkey hepatocytes; monkey, hepatocytes): 4.145 µL·min^-1·Million cells^-1
Clearance class from Eh (monkey hepatocytes; monkey, hepatocytes): low clearance
Remaining percentage after 120 min incubation (monkey hepatocytes; monkey, hepatocytes, 2 h, 1 µM): 61.7%
half-life at 1 µM (in vitro; ICR, mouse): 134 min
half-life at 1 µM (in vitro; SD, rat): 236 min
half-life at 1 µM (in vitro; beagle, dog): 192 min
half-life at 1 µM (in vitro; human): 929 min
half-life at 1 µM (in vitro; monkey): 167 min
CLH (mouse hepatocytes [7]; ICR, mouse, 1 µM): 36.6 mL/min/kg
Eh (mouse hepatocytes [7]; ICR, mouse, 1 µM): 0.406
Remaining percentage after 120 min incubation (mouse hepatocytes [7]; ICR, mouse, hepatocytes, 2 h, 1 µM): 54.7%
CLint, in vivo (mouse hepatocytes [7]; hepatocytes): 61.6 mL/min/kg
CLint, in virto (mouse hepatocytes [7]; mouse, hepatocytes): 5.187 µL·min^-1·Million cells^-1
Clearance class from Eh (mouse hepatocytes [7]; mouse, hepatocytes): moderate clearance
CLint, in vivo (human hepatocytes [8]; hepatocytes): 2.7 mL/min/kg
CLH (human hepatocytes [8]; human, 1 µM): 2.4 mL/min/kg
Eh (human hepatocytes [8]; human, 1 µM): 0.115
CLint, in virto (human hepatocytes [8]; human, hepatocytes): 0.746 µL·min^-1·Million cells^-1
Clearance class from Eh (human hepatocytes [8]; human, hepatocytes): low clearance
Remaining percentage after 120 min incubation (human hepatocytes [8]; human, hepatocytes, 2 h, 1 µM): 97.3%
CLH (dog hepatocytes; beagle, dog, 1 µM): 13.8 mL/min/kg
Eh (dog hepatocytes; beagle, dog, 1 µM): 0.446
Remaining percentage after 120 min incubation (dog hepatocytes; beagle, dog, hepatocytes, 2 h, 1 µM): 66.6%
CLint, in virto (dog hepatocytes; dog, hepatocytes): 3.619 µL·min^-1·Million cells^-1
Clearance class from Eh (dog hepatocytes; dog, hepatocytes): moderate clearance
CLint, in vivo (dog hepatocytes; hepatocytes): 24.9 mL/min/kg
